Test [1] deals with T1, 2-5A-dependent ribonuclease (Homo sapiens, UniProt Q05823).
T1 sequence (Q05823 whole entry): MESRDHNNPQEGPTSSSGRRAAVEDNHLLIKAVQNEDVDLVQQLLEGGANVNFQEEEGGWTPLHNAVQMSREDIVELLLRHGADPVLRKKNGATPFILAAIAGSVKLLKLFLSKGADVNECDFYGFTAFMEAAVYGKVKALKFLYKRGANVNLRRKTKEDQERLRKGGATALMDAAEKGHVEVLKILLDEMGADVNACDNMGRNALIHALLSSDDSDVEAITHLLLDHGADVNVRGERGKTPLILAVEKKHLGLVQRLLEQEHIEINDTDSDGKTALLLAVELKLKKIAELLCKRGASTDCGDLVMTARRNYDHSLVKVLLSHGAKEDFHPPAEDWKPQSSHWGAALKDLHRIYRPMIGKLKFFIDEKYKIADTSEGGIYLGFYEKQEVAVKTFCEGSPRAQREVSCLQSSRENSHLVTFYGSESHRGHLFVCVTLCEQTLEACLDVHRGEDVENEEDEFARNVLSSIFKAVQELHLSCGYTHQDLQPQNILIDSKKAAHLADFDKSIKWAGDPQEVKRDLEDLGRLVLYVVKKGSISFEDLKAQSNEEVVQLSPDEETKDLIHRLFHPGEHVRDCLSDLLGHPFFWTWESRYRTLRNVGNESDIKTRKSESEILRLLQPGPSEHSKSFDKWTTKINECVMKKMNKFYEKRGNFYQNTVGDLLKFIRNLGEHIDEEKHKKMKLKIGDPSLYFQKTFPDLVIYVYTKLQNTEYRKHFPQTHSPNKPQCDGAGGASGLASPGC
The test is described as follows: (§1) Activation of human RNase L expressed in Escherichia coli BL21 (DE3) cells assessed as RNA cleavage using Cy5-rC11-UU-C7-BHQ2 as substrate by FRET assay.

Test [2] deals with T2, 2-5A-dependent ribonuclease (Homo sapiens) (UniProt Q05823).
T2 sequence (whole entry): T1 sequence (Q05823 whole entry)
The test is described as §1.

pEC50: −log10 of the molar value. The source made the active and inactive calls. No cut-off for these calls is given here. A value given as a limit tells only on which side of the number the result lay.

Turning to `Nc1ncnc2c1ncn2[C@@H]1O[C@H](COP(=O)(O)O[C@@H]2[C@H](O)[C@@H](COP(=O)(O)CO[C@@H]3[C@@H](O)[C@@H](COP(=O)(O)O[C@@H]4[C@H](O)[C@@H](COP(=O)(O)O)O[C@H]4n4cnc5c(N)ncnc54)O[C@H]3n3cnc4c(N)ncnc43)O[C@H]2n2cnc3c(N)ncnc32)[C@@H](O)[C@H]1O`, the pEC50 (as a rule, the negative decadic logarithm of the EC50, by convention in mol/L) in test [1] was below 6.00.
Regarding `Nc1ncnc2c1ncn2[C@@H]1O[C@H](COP(=O)(O)CO[C@@H]2[C@H](O)[C@@H](COP(=O)(O)O[C@@H]3[C@H](O)[C@@H](COP(=O)(O)O[C@@H]4[C@H](O)[C@@H](COP(=O)(O)O)O[C@H]4n4cnc5c(N)ncnc54)O[C@H]3n3cnc4c(N)ncnc43)O[C@H]2n2cnc3c(N)ncnc32)[C@@H](O)[C@H]1O`, the outcome in test [2] was Active. Moreover, the pEC50 in test [1] is 6.70.
For `Nc1ncnc2c1ncn2[C@@H]1O[C@H](COP(=O)(O)O[C@@H]2[C@H](O)[C@@H](COP(=O)(O)CO[C@@H]3[C@H](O)[C@@H](COP(=O)(O)O[C@@H]4[C@H](O)[C@@H](COP(=O)(O)O)O[C@H]4n4cnc5c(N)ncnc54)O[C@H]3n3cnc4c(N)ncnc43)O[C@H]2n2cnc3c(N)ncnc32)[C@@H](O)[C@H]1O`, the pEC50 in test [1] was below 6.00.
Regarding `Nc1ncnc2c1ncn2[C@@H]1O[C@H](COP(=O)(O)O[C@@H]2[C@H](O)[C@@H](COP(=O)(O)O[C@@H]3[C@@H](O)[C@@H](COCP(=O)(O)O[C@@H]4[C@H](O)[C@@H](COP(=O)(O)O)O[C@H]4n4cnc5c(N)ncnc54)O[C@H]3n3cnc4c(N)ncnc43)O[C@H]2n2cnc3c(N)ncnc32)[C@@H](O)[C@H]1O`, the pEC50 in test [1] was below 6.00.
In the case of `Nc1ncnc2c1ncn2[C@@H]1O[C@H](COP(=O)(O)O[C@@H]2[C@H](O)[C@@H](COP(=O)(O)O[C@@H]3[C@H](O)[C@@H](COCP(=O)(O)O[C@@H]4[C@H](O)[C@@H](COP(=O)(O)O)O[C@H]4n4cnc5c(N)ncnc54)O[C@H]3n3cnc4c(N)ncnc43)O[C@H]2n2cnc3c(N)ncnc32)[C@@H](O)[C@H]1O`, the result in test [2] was inactive. For the same compound, the negative-log EC50 (pEC50) in test [1] is below 6.00.
Consider `Nc1ncnc2c1ncn2[C@@H]1O[C@H](COP(=O)(O)O[C@@H]2[C@H](O)[C@@H](COP(=O)(O)O[C@@H]3[C@H](O)[C@@H](COP(=O)(O)CO[C@@H]4[C@H](O)[C@@H](COP(=O)(O)O)O[C@H]4n4cnc5c(N)ncnc54)O[C@H]3n3cnc4c(N)ncnc43)O[C@H]2n2cnc3c(N)ncnc32)[C@@H](O)[C@H]1O`, for which the pEC50 in test [1] was below 6.00.
For `Nc1ncnc2c1ncn2[C@@H]1O[C@H](COP(=O)(O)CO[C@@H]2[C@@H](O)[C@@H](COP(=O)(O)O[C@@H]3[C@H](O)[C@@H](COP(=O)(O)O[C@@H]4[C@H](O)[C@@H](COP(=O)(O)O)O[C@H]4n4cnc5c(N)ncnc54)O[C@H]3n3cnc4c(N)ncnc43)O[C@H]2n2cnc3c(N)ncnc32)[C@@H](O)[C@H]1O`, in test [1], the pEC50 was below 6.00.
`Nc1ncnc2c1ncn2[C@@H]1O[C@H](COCP(=O)(O)O[C@@H]2[C@H](O)[C@@H](COP(=O)(O)O[C@@H]3[C@H](O)[C@@H](COP(=O)(O)O[C@@H]4[C@H](O)[C@@H](COP(=O)(O)O)O[C@H]4n4cnc5c(N)ncnc54)O[C@H]3n3cnc4c(N)ncnc43)O[C@H]2n2cnc3c(N)ncnc32)[C@H](O)[C@H]1O`: the outcome in test [2] was Active. Moreover, the pEC50 in test [1] is 8.38.
With `Nc1ncnc2c1ncn2[C@@H]1O[C@H](COP(=O)(O)O[C@@H]2[C@H](O)[C@@H](COP(=O)(O)O[C@@H]3[C@H](O)[C@@H](COP(=O)(O)O[C@@H]4[C@H](O)[C@@H](COP(=O)(O)O)O[C@H]4n4cnc5c(N)ncnc54)O[C@H]3n3cnc4c(N)ncnc43)O[C@H]2n2cnc3c(N)ncnc32)[C@@H](O)[C@H]1O`, in test [1], the pEC50 was 7.77.
As for `Nc1ncnc2c1ncn2[C@@H]1O[C@H](COCP(=O)(O)O[C@@H]2[C@H](O)[C@@H](COP(=O)(O)O[C@@H]3[C@H](O)[C@@H](COP(=O)(O)O[C@@H]4[C@H](O)[C@@H](COP(=O)(O)O)O[C@H]4n4cnc5c(N)ncnc54)O[C@H]3n3cnc4c(N)ncnc43)O[C@H]2n2cnc3c(N)ncnc32)[C@@H](O)[C@@H]1O`, the outcome in test [2] was Active. For the same compound, the pEC50 in test [1] is 8.19.
On the same counts, the results for `Nc1ncnc2c1ncn2[C@@H]1O[C@H](COP(=O)(O)CO[C@H]2[C@H](O)[C@@H](COP(=O)(O)O[C@@H]3[C@H](O)[C@@H](COP(=O)(O)O[C@@H]4[C@H](O)[C@@H](COP(=O)(O)O)O[C@H]4n4cnc5c(N)ncnc54)O[C@H]3n3cnc4c(N)ncnc43)O[C@H]2n2cnc3c(N)ncnc32)[C@@H](O)[C@H]1O` are “Active” and 6.00.
On to `Nc1ncnc2c1ncn2[C@@H]1O[C@H](COP(=O)(O)O[C@@H]2[C@H](O)[C@@H](COCP(=O)(O)O[C@@H]3[C@H](O)[C@@H](COP(=O)(O)O[C@@H]4[C@H](O)[C@@H](COP(=O)(O)O)O[C@H]4n4cnc5c(N)ncnc54)O[C@H]3n3cnc4c(N)ncnc43)O[C@H]2n2cnc3c(N)ncnc32)[C@@H](O)[C@H]1O`, for which the outcome in test [2] was inactive. Also, the pEC50 in test [1] was 6.52.
On the same counts, the results for `Nc1ncnc2c1ncn2[C@@H]1O[C@H](COP(=O)(O)O[C@@H]2[C@H](O)[C@@H](COP(=O)(O)O[C@@H]3[C@H](O)[C@@H](COP(=O)(O)O[C@@H]4[C@@H](O)[C@@H](COCP(=O)(O)O)O[C@H]4n4cnc5c(N)ncnc54)O[C@H]3n3cnc4c(N)ncnc43)O[C@H]2n2cnc3c(N)ncnc32)[C@@H](O)[C@H]1O` are “Active” and 6.52.
Consider `Nc1ncnc2c1ncn2[C@@H]1O[C@H](COP(=O)(O)O[C@@H]2[C@H](O)[C@@H](COP(=O)(O)O[C@@H]3[C@H](O)[C@@H](COP(=O)(O)CO[C@@H]4[C@@H](O)[C@@H](COP(=O)(O)O)O[C@H]4n4cnc5c(N)ncnc54)O[C@H]3n3cnc4c(N)ncnc43)O[C@H]2n2cnc3c(N)ncnc32)[C@@H](O)[C@H]1O`, for which the outcome in test [2] was Active. Moreover, in test [1], the pEC50 is 6.52.
In the case of `Nc1ncnc2c1ncn2[C@@H]1O[C@H](COP(=O)(O)O[C@@H]2[C@H](O)[C@@H](COP(=O)(O)CO[C@H]3[C@H](O)[C@@H](COP(=O)(O)O[C@@H]4[C@H](O)[C@@H](COP(=O)(O)O)O[C@H]4n4cnc5c(N)ncnc54)O[C@H]3n3cnc4c(N)ncnc43)O[C@H]2n2cnc3c(N)ncnc32)[C@@H](O)[C@H]1O`, the pEC50 in test [1] was below 6.00.
On to `Nc1ncnc2c1ncn2[C@@H]1O[C@H](COCP(=O)(O)O[C@@H]2[C@H](O)[C@@H](COP(=O)(O)O[C@@H]3[C@H](O)[C@@H](COP(=O)(O)O[C@@H]4[C@H](O)[C@@H](COP(=O)(O)O)O[C@H]4n4cnc5c(N)ncnc54)O[C@H]3n3cnc4c(N)ncnc43)O[C@H]2n2cnc3c(N)ncnc32)[C@@H](O)[C@H]1O`, for which the outcome in test [2] was Active. In test [1], the pEC50 is 7.82.
`Nc1ncnc2c1ncn2[C@@H]1O[C@H](COP(=O)(O)O[C@@H]2[C@H](O)[C@@H](COP(=O)(O)O[C@@H]3[C@H](O)[C@@H](COP(=O)(O)O[C@@H]4[C@H](O)[C@@H](COCP(=O)(O)O)O[C@H]4n4cnc5c(N)ncnc54)O[C@H]3n3cnc4c(N)ncnc43)O[C@H]2n2cnc3c(N)ncnc32)[C@@H](O)[C@H]1O`: the pEC50 in test [1] was 7.28.
Regarding `Nc1ncnc2c1ncn2[C@@H]1O[C@H](COP(=O)(O)O[C@@H]2[C@@H](O)[C@@H](COCP(=O)(O)O[C@@H]3[C@H](O)[C@@H](COP(=O)(O)O[C@@H]4[C@H](O)[C@@H](COP(=O)(O)O)O[C@H]4n4cnc5c(N)ncnc54)O[C@H]3n3cnc4c(N)ncnc43)O[C@H]2n2cnc3c(N)ncnc32)[C@@H](O)[C@H]1O`, the result in test [2] was Active. For the same compound, the pEC50 in test [1] was 6.00.
On the same counts, the results for `Nc1ncnc2c1ncn2[C@@H]1O[C@H](COP(=O)(O)O[C@@H]2[C@H](O)[C@@H](COP(=O)(O)O[C@@H]3[C@H](O)[C@@H](COP(=O)(O)O[C@H]4[C@H](O)[C@@H](COCP(=O)(O)O)O[C@H]4n4cnc5c(N)ncnc54)O[C@H]3n3cnc4c(N)ncnc43)O[C@H]2n2cnc3c(N)ncnc32)[C@@H](O)[C@H]1O` are “Active” and 6.00.
With `Nc1ncnc2c1ncn2[C@@H]1O[C@H](COP(=O)(O)O[C@@H]2[C@H](O)[C@@H](COP(=O)(O)O[C@H]3[C@H](O)[C@@H](COCP(=O)(O)O[C@@H]4[C@H](O)[C@@H](COP(=O)(O)O)O[C@H]4n4cnc5c(N)ncnc54)O[C@H]3n3cnc4c(N)ncnc43)O[C@H]2n2cnc3c(N)ncnc32)[C@@H](O)[C@H]1O`, the pEC50 in test [1] is below 6.00.
The same measure, in the same setting: under `Nc1ncnc2c1ncn2[C@@H]1O[C@H](COP(=O)(O)O[C@H]2[C@H](O)[C@@H](COCP(=O)(O)O[C@@H]3[C@H](O)[C@@H](COP(=O)(O)O[C@@H]4[C@H](O)[C@@H](COP(=O)(O)O)O[C@H]4n4cnc5c(N)ncnc54)O[C@H]3n3cnc4c(N)ncnc43)O[C@H]2n2cnc3c(N)ncnc32)[C@@H](O)[C@H]1O` stands below 6.00.
For `Nc1ncnc2c1ncn2[C@@H]1O[C@H](COP(=O)(O)O[C@@H]2[C@H](O)[C@@H](COP(=O)(O)O[C@@H]3[C@H](O)[C@@H](COP(=O)(O)CO[C@H]4[C@H](O)[C@@H](COP(=O)(O)O)O[C@H]4n4cnc5c(N)ncnc54)O[C@H]3n3cnc4c(N)ncnc43)O[C@H]2n2cnc3c(N)ncnc32)[C@@H](O)[C@H]1O`, the pEC50 in test [1] was below 6.00.

The values above are taken from ChEMBL document CHEMBL2057064, “Activation of human RNase L by 2'- and 5'-O-methylphosphonate-modified oligoadenylates” (Bioorg Med Chem Lett, 2012).
